# Reference: publication PMC5551549 (Endocrinology, 2017)
# “Also recorded” adds a separate entry of the source.
# How the values were obtained:
# CHO-K1-GCGR cells [1] = assay: Ca^2+ response to ATP (control), CHO-K1-GCGR cells; format: cell-based, Chinese hamster; conditions: mean ± SEM; P = 0.77 vs RAMP2-expressing cells
# Experimental: (§1) Cells, plated overnight onto 96-well plates at 50,000 cells/well, were incubated in 75 µL Ca NW^PLUS working reagent for 1 hour at 37°C. […] Fluorescence signal was measured from 5 seconds before to 30 seconds after injection of agonist. The Ca^2+ response was expressed as a percentage of the adenosine triphosphate response (1 µM).
# [2] = test system: CHO-K1-GCGR cells + RAMP2; assay: Ca^2+ response to ATP (control), RAMP2-expressing CHO-K1-GCGR cells; format: cell-based, Chinese hamster; conditions: mean ± SEM; P = 0.77 vs control cells
# Experimental: as §1
# CHO-K1-GCGR cells [3] = assay: cAMP response to forskolin (control), CHO-K1-GCGR cells; format: cell-based, Chinese hamster; conditions: mean ± SEM; P = 0.20 vs RAMP2-expressing cells
# Experimental: (§2) CHO-K1 cells overexpressing the human GCGR (with or without RAMP2), plated onto 48-well plates at 40,000 cells/well, were incubated in serum-free media for 1 hour. Peptides were prepared in serum-free DMEM containing 100 µM of IBMX (3-isobutyl-1-methylxanthine; Sigma-Aldrich, United Kingdom). The cells were incubated for 30 minutes with the test peptide, after which media were replaced with 110 µL lysis buffer (0.1M HCl with 0.5% Triton-X). The lysate was assayed by using a direct cyclic adenosine monophosphate ELISA kit (Enzo Life Sciences, United Kingdom), as described in the assay manual. The cyclic adenosine monophosphate (cAMP) response was corrected for well protein levels (Bradford reagent; Sigma-Aldrich) and expressed as a percentage of response to 10 µM forskolin.
# [4] = test system: CHO-K1-GCGR cells + RAMP2; assay: cAMP response to forskolin (control), RAMP2-expressing CHO-K1-GCGR cells; format: cell-based, Chinese hamster; conditions: mean ± SEM; P = 0.20 vs control cells
# Experimental: as §2
# [5] = test system: human GCGR coexpressed with RAMP2; assay: PathHunter β-arrestin recruitment, CHO-K1-βArr-GCGR cells with RAMP2; format: cell-based; conditions: 90 min, 37°C; PathHunter β-galactosidase complementation; minimum of four separate experiments; Emax P < 0.0001 with vs without RAMP2
# Text: PathHunter CHO-K1 GCGR β-Arrestin GPCR assay (DiscoveRx Corporation Ltd.) was used to determine the effect of RAMP2 on the potency of GCGR ligands for recruitment of β-arrestin-1 to the GCGR. The CHO-K1-βArr-GCGR cells are engineered to detect the interaction of β-arrestin with the activated GCGR using β-galactosidase fragment complementation. CHO-K1-βArr-GCGR cells were stably transfected with or without RAMP2, as described previously. […] Fifty-five microliters of the PathHunter detection reagents was added to each well, and the microplate was incubated at room temperature for 60 minutes.
compound,measurement,setting,value
"Nc1ncnc2c1ncn2[C@@H]1O[C@H](COP(=O)(O)OP(=O)(O)OP(=O)(O)O)[C@@H](O)[C@H]1O [ATP, adenosine triphosphate]","Ca^2+ response to ATP, control cells",CHO-K1-GCGR cells [1],1.81 ± 0.08 relative fluorescence unit fold increase from baseline
same,"Ca^2+ response to ATP, RAMP2-expressing cells",[2],1.84 ± 0.10 relative fluorescence unit fold increase from baseline
C=C[C@@]1(C)CC(=O)[C@]2(O)[C@@]3(C)[C@@H](O)CCC(C)(C)[C@@H]3[C@H](O)[C@H](OC(C)=O)[C@@]2(C)O1 [forskolin],"cAMP response to forskolin, control cells",CHO-K1-GCGR cells [3],0.136 ± 0.01 relative absorbance units
same,"cAMP response to forskolin, RAMP2-expressing cells",[4],0.140 ± 0.01 relative absorbance units
CC[C@H](C)[C@H](NC(=O)[C@H](Cc1ccccc1)NC(=O)[C@H](CCC(=O)O)NC(=O)[C@H](CCCCN)NC(=O)[C@H](C)NC(=O)[C@H](C)NC(=O)[C@H](CCC(N)=O)NC(=O)CNC(=O)[C@H](CCC(=O)O)NC(=O)[C@H](CC(C)C)NC(=O)[C@H](Cc1ccc(O)cc1)NC(=O)[C@H](CO)NC(=O)[C@H](CO)NC(=O)[C@@H](NC(=O)[C@H](CC(=O)O)NC(=O)[C@H](CO)NC(=O)[C@@H](NC(=O)[C@H](Cc1ccccc1)NC(=O)[C@@H](NC(=O)CNC(=O)[C@H](CCC(=O)O)NC(=O)[C@H](C)NC(=O)[C@@H](N)Cc1c[nH]cn1)[C@@H](C)O)[C@@H](C)O)C(C)C)C(=O)N[C@@H](C)C(=O)N[C@@H](Cc1c[nH]c2ccccc12)C(=O)N[C@@H](CC(C)C)C(=O)N[C@H](C(=O)N[C@@H](CCCCN)C(=O)NCC(=O)N[C@@H](CCCNC(=N)N)C(N)=O)C(C)C [GLP-1],β-arrestin recruitment in cells expressing both GCGR and RAMP2,[5],did not occur; also recorded: completely abolished
